Measurements from publication PMC5235360 (Biochemistry, 2016).

Biological target: bsLDH (Geobacillus stearothermophilus, UniProt P00344)
Format: binding

bsLDH, sequence (P00344 whole entry): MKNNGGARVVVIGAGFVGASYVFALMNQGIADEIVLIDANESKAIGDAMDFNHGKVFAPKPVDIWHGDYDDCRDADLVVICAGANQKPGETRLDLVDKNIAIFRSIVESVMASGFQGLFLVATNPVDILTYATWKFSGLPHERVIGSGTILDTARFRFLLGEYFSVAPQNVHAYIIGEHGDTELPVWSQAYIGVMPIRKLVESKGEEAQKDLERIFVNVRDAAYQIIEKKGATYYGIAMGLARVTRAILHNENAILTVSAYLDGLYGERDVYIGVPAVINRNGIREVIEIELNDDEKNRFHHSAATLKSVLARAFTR

`NC(=O)C1=CN([C@@H]2O[C@H](COP(=O)(O)OP(=O)(O)OC[C@H]3O[C@@H](n4cnc5c(N)ncnc54)[C@H](O)[C@@H]3O)[C@@H](O)[C@H]2O)C=CC1` [NADH] was tested, and the Kd was 1.3 ± 0.7 µM.
